In patent US8101603B2, “Tyrosine kinase inhibitors” (Merck Sharp & Dohme Corp., priority 2006, dated 2012):

target: T1, human c-Met (Homo sapiens, UniProt P08581); experiment: In vitro c-Met kinase assay (homogeneous time-resolved fluorescence); format: biochemical; conditions: recombinant GST-tagged c-Met cytosolic domain, 50 μM MgATP, HTRF
T1 construct: Recombinant GST-tagged cytosolic domains of human c-Met; 6xHis; made in house; host or cells: Sf9 or Sf21 insect cells (baculovirus, Pharmingen pGcGHLT vector)
Excerpt: Recombinant GST-tagged cytosolic domains of human c-Met and other receptor tyrosine kinases including mouse c-Met, human Ron, KDR, IGFR, EGFR, FGFR, Mer, TrkA and Tie2 are used to determine whether the compounds of the instant invention modulate the enzymatic activities of these kinases.
Soluble recombinant GST-tagged cytosolic domains of c-Met and other receptor tyrosine kinases are expressed in a baculovirus system (Pharmingen) according to a protocol recommended by the manufacturer. The c-DNA encoding each cytosolic domain is subcloned into a baculovirus expression vector (pGcGHLT-A, B or C, Pharmingen) containing an in frame 6× histidine tag and a GST tag. The resulting plasmid construct and BaculoGold baculovirus DNA (Pharmingen) are used to co-transfect Sf9 or Sf21 insect cells. After confirming expression of GST-tagged kinase fusion, a high titer recombinant baculovirus stock is produced, expression conditions are optimized, and a scaled up expression of rat KDR-GST fusion is performed. The fusion kinase is then purified from the insect cell lysate by affinity chromatography using glutathione agarose (Pharmingen). The purified protein is dialyzed against 50% glycerol, 2 mM DTT, 50 mM Tris-HCl (pH 7.4) and stored at −20° C. The protein concentrations of the fusion proteins are determined using Coomassie Plus Protein Assay (Pierce) with BSA as standard.
The procedure for determining the potency of a compound to inhibit c-Met kinase comprises the following steps: • 1. Prepare 3-fold serial diluted compound solutions in 100% dimethyl sulfoxide (DMSO) at 20× of the desired final concentrations in a 96 well plate. • 2. […] In a black assay plate, add 2.5 μl of compound solution (or DMSO) and 37.5 μl of master reaction mix per well. Initiate the kinase reaction by adding 10 μl of 0.25 mM MgATP per well. Allow the reactions to proceed for 80 min at room temperature. The final conditions for the reaction are 0.2 nM c-Met, 0.5 μM substrate, 50 μM MgATP, 5 mM MgCl2, 100 mM NaCl, 2 mM DTT, 0.1 mg/ml BSA, 50 mM Tris (pH 7.4) and 5% DMSO. • 4. […] Read HTRF signals on a Victor reader (PerkinElmer) in HTRF mode after 60 min. • 6.

T1 sequence (P08581 956-1390 limits assumed): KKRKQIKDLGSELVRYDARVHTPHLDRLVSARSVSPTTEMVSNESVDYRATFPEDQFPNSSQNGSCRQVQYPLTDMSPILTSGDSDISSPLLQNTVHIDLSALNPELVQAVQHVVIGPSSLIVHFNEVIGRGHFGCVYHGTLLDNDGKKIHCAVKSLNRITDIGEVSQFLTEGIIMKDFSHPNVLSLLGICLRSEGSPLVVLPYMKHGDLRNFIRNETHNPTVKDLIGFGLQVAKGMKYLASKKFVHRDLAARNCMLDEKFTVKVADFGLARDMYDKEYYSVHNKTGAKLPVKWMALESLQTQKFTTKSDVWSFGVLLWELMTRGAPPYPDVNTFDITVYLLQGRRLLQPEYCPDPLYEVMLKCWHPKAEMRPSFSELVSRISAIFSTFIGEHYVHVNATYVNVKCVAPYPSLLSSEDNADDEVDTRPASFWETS

IC50 [µM] | Structure (SMILES)
≤ 50 | Cn1cc(-c2cnc3ccc4ccc(CS(=O)(=O)Nc5cccnc5)cc4c(=O)c3c2)cn1 [Compound 5-5, 1-[3-(1-methyl-1H-pyrazol-4-yl)-5-oxo-5H-benzo[4,5]cyclohepta[1,2-b]pyridin-7-yl]-N-pyridin-3-ylmethanesulfonamide]
≤ 50 | CN(C)S(=O)(=O)C(F)c1ccc2ccc3ncc(-c4cnn(C)c4)cc3c(=O)c2c1 (stereo not shown) [Compound 4-2, 1-Fluoro-N,N-dimethyl-1-[3-(1-methyl-1H-pyrazol-4-yl)-5-oxo-5H-benzo[4,5]cyclohepta[1,2-b]pyridin-7-yl]methanesulfonamide]
≤ 50 | CN(C)S(=O)(=O)C(F)(F)c1ccc2ccc3ncc(-c4cnn(C)c4)cc3c(=O)c2c1 [Compound 4-1, 1,1-Difluoro-N,N-dimethyl-1-[3-(1-methyl-1H-pyrazol-4-yl)-5-oxo-5H-benzo[4,5]cyclohepta[1,2-b]pyridin-7-yl]methanesulfonamide]
≤ 50 | CC(c1ccc2ccc3ncc(-c4cnn(C)c4)cc3c(=O)c2c1)S(=O)(=O)N(C)c1ccccc1 (stereo not shown) [Compound 7-1, N-methyl-1-[3-(1-methyl-1H-pyrazol-4-yl)-5-oxo-5H-benzo[4,5]cyclohepta[1,2-b]pyridin-7-yl]-N-phenylethanesulfonamide]
